# Like-named read-outs stand apart in the source and are kept apart here.
# Key:
# Assay type in all cases: in vivo
# [1] = test system: Arabidopsis wild-type and CesA1/CesA3/CesA6 mutant alleles; test: Root length of Arabidopsis wild-type and CESA mutant lines on cellulose biosynthetic inhibitors (CBI resistance); conditions: Arabidopsis thaliana
# Method: Further genetic screens aimed at identifying resistance to cellulose biosynthetic inhibitors (CBIs) were also conducted. The aim of conducting resistance screens can be to identify potential inhibitor targets. In the case of some CBIs, like isoxaben, resistance screens have been carried out using high concentrations of the inhibitor with the aim of identifying the target protein. Indeed, high resistance to isoxaben is only possible if certain CELLULOSE SYNTHASE (CESA) genes are altered by mutation. An unforeseen consequence of some of the resistance alleles has been to reduce overall cellulose crystallinity, which ultimately leads to overall improved saccharification of starting cell wall material. With this information as a starting point, the inventors sought to identify novel CESA alleles by conducting additional resistance screens, but utilizing much lower CBI concentrations than in the original screens.
# EMS mutagenized plants (M2) were screened on 20 nM of two different CBIs, isoxaben or flupoxam. […] In total, 2 million M2 seeds were screened and 12 new CESA alleles were isolated, 3 in CESA1, 8 in CESA3 and 1 in CESA6. All of the new mutant alleles led to single amino acid substitutions, which could not have been predicted a priori.
# [2] = test system: wild type Arabidopsis seedlings; test: Sugar release by 0.2 M H2SO4 acid hydrolysis of NPA-treated Arabidopsis seedlings; conditions: wild type (Col-0) 28 day-old seedlings on MS media with 1 or 5 μM NPA
# Description: FIGS. 4A-4D illustrate the analysis of pin-shaped inflorescence mutants and NPA treatment, resulting in increased saccharification in Arabidopsis and maize. […] (Results are averages ±s.d. (n=4). *, P<0.001 and **, P<0.005 using Student's t-test; all experiments were repeated two times with similar results.)
# (§1) The connection between auxin transport and increased sugar release was further probed using a specific inhibitor of auxin transport N-1-naphthylphthalamic acid (NPA). […] More importantly, the ability to chemically perturb auxin transport allowed the expansion of the analysis to Zea mays (maize). […] Moreover, it appears that genes and processes identified using Arabidopsis can be transferred to maize and potentially other monocot species dedicated to biofuel production.
# The M2 generation of EMS-mutagenized Arabidopsis (Col-0) seeds were chilled for 4 days and sowed onto 0.5× MS plates placed vertically under continuous light conditions at room temperature. […] The samples were incubated at 100° C. for 5 minutes, cooled and the absorbance was read at 660 nm. Approximately 22,000 seedlings from 32 pools were screened from which 63 wall hydrolysis sensitive (whs) mutants were identified as having an absorbance reading greater than 2 standard deviations from wild type (FIG. 5). whs mutants were retested in the M3 generation.
# Zea mays (maize) = test: Sugar release by 0.2 M H2SO4 acid hydrolysis of NPA-treated maize; conditions: two maize cultivars, 120 μM NPA for 2 weeks
# Description: (Results are averages ±s.d. (n=6-9).)
# as §1
# Polar auxin transport inhibition was carried out as described by Wu & McSteen, 2007. The two maize cultivars, Syngenta hybrid N39-Q1 and Tuxedo Sweet Corn, were grown in a greenhouse at 24° C. with a 12 hour day/night cycle. The plants were grown four weeks before NPA treatment followed by a two week watering regime using 120 μM NPA (ChemService, West Chester, Pa., USA) or DMSO alone (solvent) applied every two days in a volume of 150 mL for each pot. Plants were fertilized once a week with 20-20-20 fertilizer. After 2 weeks of treatment, whole plants were collected and de-stained in chloroform:methanol (1:1 v/v). Acid hydrolysis was performed as described previously.
smiles,measurement,setting,value
"NC(=O)c1nc(-c2ccccc2)n(-c2ccc(Cl)c(COCC(F)(F)C(F)(F)F)c2)n1 [Flupoxam, flupoxam]",IC50,"[1]; read-out: Concentration at which root length is 50% of wt, allele fpx 1-1, Col-o, CesA3 S(1040)L",500 nM
same,IC50,"[1]; read-out: Concentration at which root length is 50% of wt, allele fpx 1-2, Ler, CesA3 S(1037)F",> 1000 nM
same,IC50,"[1]; read-out: Concentration at which root length is 50% of wt, allele fpx 1-3, Ler, CesA3 S(983)F",100 nM
same,IC50,"[1]; read-out: Concentration at which root length is 50% of wt, allele fpx2-1, Ler, CesA1 G(1013)R",> 1000 nM
same,IC50,"[1]; read-out: Concentration at which root length is 50% of wt, allele fpx 2-2, Ler, CesA1 P(1010)L",100 to 500 nM
same,IC50,"[1]; read-out: Concentration at which root length is 50% of wt, allele fpx 2-3, Ler, CesA1 G(1009)D",1000 nM
"CCC(C)(CC)c1cc(NC(=O)c2c(OC)cccc2OC)on1 [Isoxaben, isoxaben]",IC50,"[1]; read-out: Concentration at which root length is 50% of wt, allele ixr1-1 (published), Col-0, CesA3 G(998)D",> 1000 nM
same,IC50,"[1]; read-out: Concentration at which root length is 50% of wt, allele ixr1-2 (published), Col-0, CesA3 T(942)I",500 nM
same,IC50,"[1]; read-out: Concentration at which root length is 50% of wt, allele ixr1-3, Ler, CesA3 G(998)S",100 nM
same,IC50,"[1]; read-out: Concentration at which root length is 50% of wt, allele ixr1-4, Ler, CesA3 R(806)K",50 nM
same,IC50,"[1]; read-out: Concentration at which root length is 50% of wt, allele ixr1-5, Ler, CesA3 L(797)F",10 nM
same,IC50,"[1]; read-out: Concentration at which root length is 50% of wt, allele ixr1-6, Ler, CesA3 S(377)F",50 nM
same,IC50,"[1]; read-out: Concentration at which root length is 50% of wt, allele ixr1-7, Ler, CesA3 R(276)H",50 nM
same,IC50,"[1]; read-out: Concentration at which root length is 50% of wt, allele ixr 2-1 (published), Col-0, CesA6 R(1064)W",50 nM
same,IC50,"[1]; read-out: Concentration at which root length is 50% of wt, allele ixr 2-2, Ler, CesA6 S(1002)F",10 nM
"O=C(O)c1ccccc1C(=O)Nc1cccc2ccccc12 [NPA, N-1-naphthylphthalamic acid]",increase in the release of sugars relative to untreated plants,[2],1.5 to 2 fold
same,cell wall accessibility (sugar release),Zea mays (maize),significant increase in cell wall accessibility
